Experimental data reported in US12532886B2, “Method of killing microbes using C3-C5 n-alkyl-gamma-butyrolactams and antimicrobial compositions containing same” (Virox Technologies Inc., priority 2018, dated 2026).

Tested on: M. smegmatis
Test: ASTM E2197-02 test method, without soil load, against mycobacteria
Format: cell-based
Protocol: Solutions A, B and AA were prepared to test the antimicrobial activity of N-alkyl-gamma-butyrolactam, specifically N-butyl-gamma-butyrolactam and N-octyl-gamma-butyrolactam. These solutions were tested using the ASTM E2197-02 test method (5-minute contact time or 75 second contact time) without soil load, against hard-to-kill mycobacteria (M. smegmatis).
Solution B was also tested using ASTM E2197-02 test method (75 second contact time), without soil load, against mycobacteria (M. smegmatis) and achieved a log10 reduction of 0.11 (shown in the last row of Table 1.0).
Additional solutions were prepared to assess the antimicrobial activity of N-alkyl-gamma-butyrolactam, specifically N-butyl-gamma-butyrolactam, when combined with other antimicrobial agents in aqueous solution. These solutions are summarized in Tables 2.0, 2.1, and 2.2 below and tested using ASTM E2197-02 test method (75 second contact time), without soil load, against mycobacteria (M. smegmatis).

Row | SMILES | Antimicrobial activity against M. smegmatis, 5 minutes contact time
1 | CCCCCCCCN1CCCC1=O [N-octyl-gamma-butyrolactam] | no antimicrobial activity
2 | CCCCN1CCCC1=O [N-butyl-gamma-butyrolactam] | possesses antimicrobial activity
